Laboratory results taken from US20030216569A1, “Method of making HIV protease inhibitors” (priority 1993, published 2003).
Structures can show the parent of a compound that is named as a salt. Where two headings read alike, the source gives them in different places.

Tests used:
HIV-1 protease = HIV-1 protease (Human immunodeficiency virus type 1 group M subtype B, UniProt P04585); test: Fluorescence HIV-1 Protease Inhibitor Assay (Pandex); assay type: biochemical; set-up: made in house; host or cells: E. coli K12 L507/pHP10D (NRRL B-18560)
Description: A. Preparation of Protease and Gag Fractions
Lyophils of E. coli K12 L507/pHP10D were obtained from the Northern Regional Research Laboratory, Peoria, Ill. 61604, under the accession number NRRL B-18560 (deposited Nov. 14, 1989). The lyophils were decanted into tubes containing 10 ml LB medium (10 g Bacto-tryptone, 5 g Bacto-yeast extract, and 10 g aqueous sodium chloride per liter; the pH was adjusted to 7.5 and incubated at 32° C. overnight).
A small portion of the overnight culture was placed on LB-agar (LB medium with 15 g/L Bacto-agar) plates containing 12.5 micrograms/ml tetracycline in a manner so as to obtain a single colony isolate of E. coli K12 L507/pHP10D. The single colony obtained was inoculated into 10 ml of LB medium containing 12.5 micrograms/ml tetracycline and incubated overnight at 32° C. with vigorous shaking. The 10 ml overnight culture was inoculated into LB medium containing 12.5 micrograms/ml tetracycline and incubated at 32° C. with vigorous shaking until the culture reached mid-log phase. […]
3. Preparation of Protease Fraction
A culture of E. coli K12 L507/pHP10D was grown to mid-log phase at 32° C. in LB media containing 12.5 micrograms/ml tetracycline. The cultivation temperature was quickly elevated to 40° C. to induce gene expression, and the cells were allowed to grow for 2.5 hours at this temperature before the culture was quickly chilled on ice. The cells were centrifuged and the cell pellet was resuspended in 20 ml of 50 mmol MES buffer (pH 6.0) containing 1 mmol EDTA, 1 mmol DTT, 1 mmol PMSF and 10% glycerol (“Buffer A”). Cells were lysed by sonication using a Fischer Model 300 Dismembrator and a microtip probe. Following centrifugation at 27,000×g, the supernatant was diluted to a total volume of 60 ml with Buffer A and loaded onto a 2.0×19 cm QAE-Sepharose column (1 ml/min, 4° C.), that had been equilibrated in Buffer A. The column was washed isocratically for 180 min and then eluted with a gradient eluent of […] aqueous sodium chloride in Buffer A over 120 min. Enzymatic activity was measured by HPLC using the synthetic peptide Ser-Gln-Asn-Tyr-Pro-Ile-Val as described in Margolin et al., Biochem. Biophys. Res. Commun., 167, 554-560 (1990); the production of the p1 peptide (Ser-Gln-Asn-Tyr) was measured.
The active fractions were combined, adjusted to […] 1.2M in ammonium sulfate, and applied to a 2.0×18 cm hexyl agarose column that had been equilibrated in Buffer A containing 1.2M ammonium sulfate. The sample was loaded at a flow rate of 1 ml/min at 4° C., washed with the equilibration buffer for 240 min (1 ml/min) and then eluted using a reverse linear gradient of 1.2-0M ammonium sulfate in Buffer A for 120 min at the same flow rate. The column was then washed isocratically in Buffer A for 120 min.
The active fractions were combined, concentrated to 10 ml using an Amicon stirred cell with a YM-10 membrane and then applied to a MonoS cation exchange column (1.0×10 cm) that had been equilibrated in Buffer A. The sample was loaded at a flow rate of 1 ml/min at 25° C. After washing isocratically for 30 min, the protease was eluted using a linear gradient of 0-0.45M aqueous sodium chloride in Buffer A over 40 min. The column was washed isocratically in Buffer A containing 0.45M aqueous sodium chloride for 30 minutes.
The active fractions were combined and concentrated to 200 microliters using an Amicon stirred cell and a YM-10 membrane and then the protease was applied to a Superose 6 size exclusion column equilibrated in Buffer A containing 0.1M aqueous sodium chloride.

[1] = tested on: Viral SN123 infected CEM cells
Description: Purpose: To determine IC50 CC50 for compounds:
Media A [1% DMSO] (100 microliters DMSO+9.9 ml media A)
CEM cells @ [1×10^4] cells/ml (4 plate=40 ml) (6 plate=60 ml)
(need 70 microliters of each)
A-D at [10 mM] in 100% DMSO
4 or 6 u-bottom 96-well plates
4 flat bottom 96-well plates for dilutions
8-10 boxes of sterile costar tips
Approximately 10 reagent trays
1000 cells/well=1×10^4 cells/ml=1000 cells/100 microliters 200 microliters=total volume in a well
Cell Preparation and Plating of Cells, Media A and Media A (1% DMSO)
a. Number a 96-well tissue culture plate for each compound tested, one for a control plate, and one for the control compound.
b. Count cells on hemacytometer and resuspend them in 40 ml or 80 ml of Media A at a concentration of [1×10^4]0 cells/ml.
Counting Cells on a Hemacytomer:
Label two 1.8 ml nuc tubes 1 and 2.
Put 0.5 ml of well mixed CEM cells (in growth phase) in tube 1.
Put 50 micoliters PBS and 40 microliters of trypan blue into tube 2.
Mix up the cells in tube 1 then remove 10 microliters of cells and put them into tube 2.
Mix well in tube 2, then remove 10 microliters of the stained cells and put them on the hemacytometer.
Count the number of cells in the center square of the hemacytometer with the microscope set on 10×.
The concentration of the stock CEM's in cells/ml is as follows:
Cells counted×1×10^5=Concentration of CEM's in [cells/ml].
c. Add 200 microliters Media A to: A1 of places 2-6. These are Blanks. A4-H4 of plate 1. These are Blanks.
d. Add 5 microlicers Media A to all wells of Rows A-D of plates 2-6 except A1 (the top half of each plate).
e. Add 50 microliters of Media A to wells A1-D3 of Plate 1 (the top half of the plate).
f. Add 50 microliters Media A[l% DMSO] to all wells of Columns 1-3 of plate 1.
This puts 1000 cells/well.
h. Put plates in an incubator while doing drug dilutions.
Preparation Control and Test Drugs
(1) Put 60 microliters of DMSO into all wells of Columns 2-12, Rows A-E.
(3) Put 70 microliters of A [10 mM] at 100% DMSO into well B1.
(4) Put 70 microliters of B [10 mM] at 100% DMSO into well C1.
(5) Put 70 microliters of C [10 mM] at 100% DMSO into well D1.
(6) Put 70 microliters of D [10 mM] at 100% DMSO into well E1.
Change tips before each dilution.
(1) In rows A-E of another plate make a row for the first 1:10 dilution to correspond to each compound's 100% DMSO row.
A into Row B for the first 1:10 dilution.
B into Row C for the first 1:10 dilution.
C into Row D for the first 1:10 dilution.
D into Row E for the first 1:10 dilution.
(2) Put 180 microliters of media A into all wells of rows A-E corresponding to the 100% DMSO rows. 2.5 ml needed per row.
(3) Remove 20 microliters from all wells of each row of the 100% DMSO rows and transfer it to the corresponding 1:10 row.
(1) Make a plate for every 3 compounds to be tested.
Use 20 ml of media A per plate.
(3) Transfer 25 microliters of each compound from the row in the 1:10 dilution to the corresponding two rows on the 1:100 dilution plate changing tips before each transfer.
Addition of Viral SN123 to Plates
a. Thaw Sn123 in 37° C. water bath for approximately 10 minutes.
b. Dilute Sn123 1:16 by adding 1 ml of Sn123 to 15 ml of media A.
c. Add 50 microliters of Sn123 [1:16] to wells E1-H12 of plates 2-6 and to wells E1-H3 of plate 1.
Addition of Drugs to Plates
a. Add 50 microliters of the control and test drugs from the rows in the 1:100 dilution plates to the appropriate rows in the final plates (changing tips before each transfer). One row in the 1:100 plate will do 4 rows in the final plate. Leave A1 blank.
b. Incubate all plates 7 days at 37° C. 5% CO2.
c. Do Xtt protocol on day 7 as follows:
d. Preparation of Xtt/PMS Solution: (4 plate=20 ml) (6 plate=30 ml)
100 microliters [100 mM] PMS+4.9 ml PBS=PMS at [2 mM]
(2) Heat 500 ml of H2O in microwave for 5 minutes on high.
(3) Put 20 or 30 ml of phenol red RPMI in a 50 ml centrifuge tube.
(4) Put the RPMI in the beaker of hot water.
(5) Add 20 or 30 mg of XTT to the warmed up RPMI.

[2] = normalized to positive control (=1.0), * = a calculated average, read-out: Fluorescence Assay IC50 in ng/mL (converted)
[3] = value as run, 35B value of the same run in footnote or parentheses, read-out: Pandex IC50 ng/ml (converted)
[4] = Human immunodeficiency virus 1, CCRF-CEM, read-out: Whole cell IC50 nM, CEM cells, values in parentheses are 35B in same assay
[5] = Human immunodeficiency virus 1, CCRF-CEM, read-out: Whole cell IC90 nM, CEM cells, values in parentheses are 35B in same assay
[6] = Human immunodeficiency virus 1, CCRF-CEM, read-out: Whole cell IC50 nM
[7] = Human immunodeficiency virus 1, CCRF-CEM, read-out: Whole cell IC90 nM

Molecule	IC50 (HIV-1 protease; [2]) [nM]	IC50 (HIV-1 protease; [3]) [nM]	IC50 [1, 4] [nM]	IC90 [1, 5] [nM]	further results
CC(C)(C)NC(=O)C1CC2CCCCC2CN1CC(O)C(CSc1ccccc1)NC(=O)c1cccc2ncccc12 (stereo not drawn) [Example 31, [3S-(3R*,4aR*,8aR*,2′S*,3′S*)]-2-[2′-Hydroxy-3′-phenylthiomethyl-4′-aza-5′-oxo-5′-(quinolin-5″-yl)pentyl] decahydroisoquinoline-3-N-t-butylcarboxamide]	2.04	5.94	430	884	
Cc1c(F)cccc1C(=O)NC(Cc1ccccc1)C(O)CN1CC2CCCCC2CC1C(=O)NC(C)(C)C (stereo not drawn) [Example 7, [3S-(3R*,4aR*,8aR*,2′S*,3′R*)]-2-[2′-Hydroxy-3′-phenylmethyl-4′-aza-5′-oxo-5′-(2″-methyl-3″-fluorophenyl)pentyl] decahydroisoquinoline-3-N-t-butylcarboxamide]	474		323		
Cc1c(O)cccc1C(=O)N[C@@H](CSc1ccccc1)[C@H](O)CN1C[C@H]2CCCC[C@H]2C[C@H]1C(=O)NC(C)(C)C (relative stereo) [Example 75, [3S-(3R*, 4aR*, 8aR*, 2′S*, 3′S*)]-2-[2′-Hydroxy-3′-phenylthiomethyl-4′-aza-5′-oxo-5′-(2″-methyl-3″-hydroxyphenyl)pentyl]-decahydroisoquinoline-3-N-t-butyl carboxamide methanesulfonic acid salt]			14.5	56.1	
CC(C)(C)NC(=O)C1CC2CCCCC2CN1CC(O)C(CSc1ccccc1)NC(=O)c1cccc2c1CCCN2 (stereo not drawn) [Example 32, [3S-(3R*,4aR*,8aR*,2′S*,3′S*)]-2-[2′-Hydroxy-3′-phenylthiomethyl-4′-aza-5′-oxo-5′-(1″,2″,3″,4″-tetrahydroquinolin-5″-yl)pentyl] decahydroisoquinoline-3-N-t-butylcarboxamide]	0.877	2.53	539	2310	
[2S-(2R*,2′S*,3′S*)]-1-[2′-Hydroxy-3′-phenylthiomethyl-4′-aza-5′-oxo-5′-(quinolin-5″-yl)pentyl]-4-(pyrid-3′″-ylmethyl)piperazine-2N-t-butylcarboxamide [Example 34]					Fluorescence Assay IC50 (HIV-1 protease; normalized to positive control (=1.0), * = a calculated average): 4.5 ng/mL; Pandex IC50 ng/ml (HIV-1 protease; value as run, 35B value of the same run in footnote or parentheses): 5.4^b ng/ml; IC50 ([1]; read-out: Whole cell IC50 nM, CEM cells, values in parentheses are 35B in same assay): 149 nM; IC90 ([1]; read-out: Whole cell IC90 nM, CEM cells, values in parentheses are 35B in same assay): 564 nM
Cc1cnccc1C(=O)NC(CSc1ccccc1)C(O)CN1CC2CCCCC2CC1C(=O)NC(C)(C)C (stereo not drawn) [Example 30, [3S-(3R*,4aR*,8aR*,2′S*,3′S*)]-2-[2′-Hydroxy-3′-phenylthiomethyl-4′-aza-5′-oxo-5′-(3″-methyl-pyrid-4″-yl)phentyl] decahydroisoquinoline-3-N-t-butylcarboxamide]	7.6	9.05	367	736	
Cc1c(O)cccc1C(=O)N[C@@H](CSc1ccc(F)cc1)[C@H](O)CN1C[C@H]2CCCC[C@H]2C[C@H]1C(=O)NC(C)(C)C (relative stereo) [Example 92, [3S-(3R*, 4aR*, 8aR*, 2′S*, 3′R*)]-2-(2′-Hydroxy-3′-(4′″-fluoro)phenylthiomethyl-4′-aza-5′-oxo-5′-(2″-methyl-3″-hydroxyphenyl)pentyl]-decahydroisoquinoline-3-N-t-butyl carboxamide]		< 0.273			IC50 [1, 6]: 2.01 nM; IC90 [1, 7]: 57 nM
Cc1ccccc1C(=O)NC(CSc1ccccc1)C(O)CN1CC2CCCCC2CC1C(=O)NC(C)(C)C (stereo not drawn) [Example 29, [3S-(3R*,4aR*,8aR*,2′S*,3′S*)]-2-[2′-Hydroxy-3′-phenylthiomethyl-4′-aza-5′-oxo-5′-(2″-methyl-phenyl)pentyl] decahydroisoquinoline-3-N-t-butylcarboxamide]	3.08	3.62	1590	4460	
Cc1c(O)cccc1C(=O)N[C@@H](CSc1ccccc1)[C@H](O)CN1C[C@H]2CCS[C@H]2C[C@H]1C(=O)NC(C)(C)C (relative stereo) [Example 74 I, [6S-(6R*, 3aS*, 7aR*, 2′S*, 3′S*)]-2-[2′-Hydroxy-3′-phenylthiomethyl-4′-aza-5′-oxo-5′-(2″-methyl-3″-hydroxyphenyl)pentyl]-octahydrothieno[3,2-c]pyridine-6-N-t-butyl carboxamide methanesulfonic acid salt]					IC50 (HIV-1 protease; Table 2, read-out: IC50 (Pandex)): 0.3 nM; IC50 [1, 6]: 4.06 nM; IC90 [1, 7]: 9.74 nM
CC(C)(C)NC(=O)c1ccccc1C[C@@H](O)[C@H](CSc1ccc2ccccc2c1)NC(=O)c1cccc2ncccc12 (relative stereo) [Example 63, [2′R-(2′R*,3′S*)]-N-t-Butyl-2-[2′-hydroxy-3′-naphth-2-ylthiomethyl-4′-aza-5′-oxo-5′-(quinolin-5″-yl)pentyl] benzamide]	433				
CC(C)(C)NC(=O)C1CC2CCCCC2CN1CC(O)C(Cc1ccccc1)NC(=O)c1cccc2c1CCCN2 (stereo not drawn) [Example 37, [3S-(3R*,4aR*,8aR*,2′S*,3′S*)]-2-[2′-Hydroxy-3′-phenylmethyl-4′-aza-5′-oxo-5′-[(1″,2″,3″,4″-tetrahydroquinolin-5″-yl)]pentyl] decahydroisoquinoline-3-N-y-butylcarboxamide]	49	58.8			
Cc1c(O)cccc1C(=O)NC(Cc1ccccc1)C(O)CN1CC2CCCCC2CC1C(=O)NC(C)(C)C (stereo not drawn) [Example 28, [3S-(3R*,4aR*,8aR*,2′S*,3′R*)]-2-[2′-Hydroxy-3′-phenylmethyl-4′-aza-5′-oxo-5′-(2″-methyl-3″-hydroxyphenyl)pentyl] decahydroisoquinoline-3-N-t-butylcarboxamide monomesylplate salt]					IC50 ([1]; read-out: Whole cell IC50 nM, CEM cells, tested as the mesylate salt): 35.7 nM; IC90 ([1]; read-out: Whole cell IC90 nM, CEM cells, tested as the mesylate salt): 91.8 nM
Cc1ccc(O)c(C)c1C(=O)NC(CSc1ccccc1)C(O)CN1CC2CCCCC2CC1C(=O)NC(C)(C)C (stereo not drawn) [Example 39, [3S-(3R*,4aR*,8aR*,2′S*,3′S*)]-2-[2′-Hydroxy-3′-phenylthiomethyl-4′-aza-5′-oxo-5′-[2″,6″-dimethyl-3″-hydroxyphenyl)pentyl] decahydroisoquinoline-3-N-t-butylcarboxamide]	9.11	13.7			
Cc1ccsc1C(=O)N[C@@H](CSc1ccccc1)[C@H](O)CN1C[C@H]2CCCC[C@H]2C[C@H]1C(=O)NC(C)(C)C (relative stereo) [Example 90, [3S-(3R*, 4aR*, 8aR*, 2′S*, 3′S*)]-2-[2′-Hydroxy-3′-phenylthiomethyl-4′-aza-5′-oxo-5′-(3″-methyl-thieno-2″-yl)pentyl]-decahydroisoquinoline-3-N-t-butyl carboxamide]		48.4			
